System: patients with advanced solid tumors
Experiment: First-in-human phase 1 dose-escalation study: safety, DLTs, adverse events
Type: in vivo
Description: This multicenter first-in-human dose-escalation phase 1 study (clinicaltrials.gov identifier: NCT03272256) was designed to determine the MTD or RP2D and to evaluate the safety and tolerability of IM156. Secondary endpoints included PK characteristics, efficacy assessment (objective response rate [ORR], disease control rate [DCR], duration of response [DoR] and progression-free survival [PFS]). Furthermore, exploratory objectives included identification and profiling of IM156 metabolites, evaluations of exploratory PD markers of IM156, and evaluations of any potential relationship between putative biomarkers and safety/efficacy parameters of IM156. The study was conducted in accordance with Good Clinical Practice, the International Council for Harmonisation, and guidelines governing clinical study conduct and the ethical principles originating from the Declaration of Helsinki. The study was approved by each Institutional Review Board and patients provided written informed consent. Patients were enrolled at three sites in South Korea.
The initial dose and schedule of IM156 was chosen based on animal toxicology studies. […] IM156 was administered in the fasted state, with no food for at least 2 h before and 1 h after dosing.
Three DLT-evaluable patients were enrolled at each dose level. If there were no DLTs or other prohibitive adverse events (AEs), the Safety Committee was allowed to recommend escalation to the next highest dose level. If 1 DLT occurred in the first 3 DLT-evaluable patients, enrollment in that cohort was expanded to an additional 3 DLT-evaluable patients; if ≥ 2 DLTs were reported in a cohort, that dose was considered above the MTD.
Safety was assessed through vital signs, weight, laboratory assessments, physical examinations, electrocardiogram, and reporting of AEs as graded by the National Cancer Institute’s Common Terminology Criteria for Adverse Events v4.03 (NCI-CTCAE).
DLTs were defined as the following AEs if they were attributed as related to IM156: asymptomatic grade 4 neutropenia lasting for ≥ 5 days; febrile neutropenia, regardless of grade; grade 4 thrombocytopenia or grade 3 thrombocytopenia with bleeding; any grade ≥ 3 non-hematologic AE (except grade 3 hypertension and grade 3 nausea, vomiting or diarrhea for which proper measures for prevention and treatment were not implemented, and alopecia); blood lactate levels > 5 mmol; grade ≥ 2 AE prohibiting dosing of IM156 for ≥ 21 continuous days except for alterations in serum calcium or phosphorus levels. The safety analysis includes all patients who received at least one dose of study drug.
The safety population was defined as all patients who received at least one dose of IM156. The PK population was not defined in the protocol but included all patients with sufficient PK data to perform adequate PK modeling. The efficacy population included all patients who underwent at least one tumor imaging assessment while receiving IM156. Safety was assessed using descriptive statistics (e.g., DLTs, AEs, laboratory tests, physical examination, 12-lead ECG). The incidence and number of events were reported for the DLTs observed in Cycle 1 per dose group. […] Adverse events and TRAEs were standardized with the System Organ Class and the Preferred Term using the Medical Dictionary for Regulatory Activities v23.0. In addition, TEAEs, serious adverse events (SAEs), TEAE severity, and TEAEs leading to withdrawal were presented by dose group. Efficacy data were to be presented by Waterfall and Swim Lane plots. Time to event endpoints (e.g., DoR, PFS) were determined using Kaplan–Meier estimations with the median value for each endpoint summarized.

[1] = DL1 100 mg orally every other day (n=3)
[2] = DL2 200 mg orally every other day (n=3)

NC(=Nc1ccc(OC(F)(F)F)cc1)N=C(N)N1CCCC1 [IM156]
2: TEAE Vomiting, grade 1 (DL2 200 mg QOD (n=3)) | TRAE Vomiting, All grades (patients) (DL2 200 mg QOD oral, N = 3) | TEAE Nausea, grade 2 (DL3 400 mg QOD (n=3)) | TEAE Vomiting, grade 1 (DL3 400 mg QOD (n=3))
1: TEAE Abdominal pain, grade 2 (DL2 200 mg QOD (n=3)) | TEAE Alanine aminotransferase increased, grade 1 (DL2 200 mg QOD (n=3)) | TEAE Asthenia, grade 1 (DL2 200 mg QOD (n=3)) | TEAE Cough, grade 1 (DL2 200 mg QOD (n=3)) | TEAE Diarrhoea, grade 2 (DL2 200 mg QOD (n=3)) | TEAE Ileus, grade 3 (DL2 200 mg QOD (n=3)) | TEAE Nausea, grade 1 (DL2 200 mg QOD (n=3)) | TEAE Pleural effusion, grade 2 (DL2 200 mg QOD (n=3)) | TEAE Pyrexia, grade 1 (DL2 200 mg QOD (n=3)) | TRAE Decreased appetite, All grades (patients) (DL2 200 mg QOD oral, N = 3) | TRAE Diarrhoea, All grades (patients) (DL2 200 mg QOD oral, N = 3) | TRAE Insomnia, All grades (patients) (DL2 200 mg QOD oral, N = 3) | TRAE Nausea, All grades (patients) (DL2 200 mg QOD oral, N = 3) | TEAE Anaemia grade 2 [2] | TEAE Flank pain grade 2 [2] | TEAE Insomnia grade 2 [2] | TEAE Psychiatric disorders grade 2 [2] | TEAE Cough, grade 1 (DL3 400 mg QOD (n=3)) | TEAE Headache, grade 2 (DL3 400 mg QOD (n=3)) | TEAE Nausea, grade 1 (DL3 400 mg QOD (n=3)) | TEAE Neutrophil count decreased, grade 4 (DL3 400 mg QOD (n=3)) | TEAE Peripheral sensory neuropathy, grade 1 (DL3 400 mg QOD (n=3))
0: TEAE Psychiatric disorders grade 1 [1] | TEAE Psychiatric disorders grade 2 [1] | TEAE Psychiatric disorders grade 3 [1] | TEAE Psychiatric disorders grade 4 [1] | TEAE Purpura grade 1 [1] | TEAE Purpura grade 2 [1] | TEAE Purpura grade 3 [1] | TEAE Purpura grade 4 [1] | TEAE Urinary retention grade 1 [1] | TEAE Urinary retention grade 2 [1] | TEAE Urinary retention grade 3 [1] | TEAE Urinary retention grade 4 [1] | TEAE Urinary tract disorder grade 1 [1] | TEAE Urinary tract disorder grade 2 [1] | TEAE Urinary tract disorder grade 3 [1] | TEAE Urinary tract disorder grade 4 [1] | TRAE Abdominal Pain, > G3 (patients) (DL2 200 mg QOD oral, N = 3) | TRAE Abdominal Pain, All grades (patients) (DL2 200 mg QOD oral, N = 3) | TRAE Blood Lactic Acid increased, > G3 (patients) (DL2 200 mg QOD oral, N = 3) | TRAE Blood Lactic Acid increased, All grades (patients) (DL2 200 mg QOD oral, N = 3) | TRAE Constipation, > G3 (patients) (DL2 200 mg QOD oral, N = 3) | TRAE Constipation, All grades (patients) (DL2 200 mg QOD oral, N = 3) | TRAE Decreased appetite, > G3 (patients) (DL2 200 mg QOD oral, N = 3) | TRAE Diarrhoea, > G3 (patients) (DL2 200 mg QOD oral, N = 3) | TRAE Fatigue, > G3 (patients) (DL2 200 mg QOD oral, N = 3) | TRAE Fatigue, All grades (patients) (DL2 200 mg QOD oral, N = 3) | TRAE Insomnia, > G3 (patients) (DL2 200 mg QOD oral, N = 3) | TRAE Nausea, > G3 (patients) (DL2 200 mg QOD oral, N = 3) | TRAE Vomiting, > G3 (patients) (DL2 200 mg QOD oral, N = 3) | TEAE Adrenal insufficiency grade 1 [2] | TEAE Adrenal insufficiency grade 2 [2] | TEAE Adrenal insufficiency grade 3 [2] | TEAE Adrenal insufficiency grade 4 [2] | TEAE Anaemia grade 1 [2] | TEAE Anaemia grade 3 [2] | TEAE Anaemia grade 4 [2] | TEAE Appendicitis perforated grade 1 [2] | TEAE Appendicitis perforated grade 2 [2] | TEAE Appendicitis perforated grade 3 [2] | TEAE Appendicitis perforated grade 4 [2] | TEAE Back pain grade 1 [2] | TEAE Back pain grade 2 [2] | TEAE Back pain grade 3 [2] | TEAE Back pain grade 4 [2] | TEAE Cystitis grade 1 [2] | TEAE Cystitis grade 2 [2] | TEAE Cystitis grade 3 [2] | TEAE Cystitis grade 4 [2] | TEAE Dry skin grade 1 [2] | TEAE Dry skin grade 2 [2] | TEAE Dry skin grade 3 [2] | TEAE Dry skin grade 4 [2] | TEAE Flank pain grade 1 [2] | TEAE Flank pain grade 3 [2] | TEAE Flank pain grade 4 [2] | TEAE Hypertension grade 1 [2] | TEAE Hypertension grade 2 [2] | TEAE Hypertension grade 3 [2] | TEAE Hypertension grade 4 [2] | TEAE Hypotension grade 1 [2] | TEAE Hypotension grade 2 [2] | TEAE Hypotension grade 3 [2] | TEAE Hypotension grade 4 [2] | TEAE Insomnia grade 1 [2] | TEAE Insomnia grade 3 [2] | TEAE Insomnia grade 4 [2] | TEAE Pain in extremity grade 1 [2] | TEAE Pain in extremity grade 2 [2] | TEAE Pain in extremity grade 3 [2] | TEAE Pain in extremity grade 4 [2] | TEAE Pruritus grade 1 [2] | TEAE Pruritus grade 2 [2] | TEAE Pruritus grade 3 [2] | TEAE Pruritus grade 4 [2] | TEAE Psychiatric disorders grade 1 [2] | TEAE Psychiatric disorders grade 3 [2] | TEAE Psychiatric disorders grade 4 [2] | TEAE Purpura grade 1 [2] | TEAE Purpura grade 2 [2] | TEAE Purpura grade 3 [2] | TEAE Purpura grade 4 [2] | TEAE Urinary retention grade 1 [2] | TEAE Urinary retention grade 2 [2] | TEAE Urinary retention grade 3 [2] | TEAE Urinary retention grade 4 [2] | TEAE Urinary tract disorder grade 1 [2] | TEAE Urinary tract disorder grade 2 [2] | TEAE Urinary tract disorder grade 3 [2] | TEAE Urinary tract disorder grade 4 [2] | TRAE Abdominal Pain, > G3 (patients) (DL3 400 mg QOD oral, N = 3) | TRAE Abdominal Pain, All grades (patients) (DL3 400 mg QOD oral, N = 3)
